Experiments:
[1] = target: T1, human sodium channels Nav 1.8 (Homo sapiens, UniProt Q9Y5Y9); assay: Automated whole-cell voltage-clamp (ScreenPatch 384P) sodium current block, Nav 1.8; assay type: cell-based; conditions: CHO cells stably expressing human Nav 1.8; inactivation step -40 mV for 8 seconds, test step 10 mV (TP1A); exposure at least five minutes; room temperature; mean if two or more assays; read-out: Nav1.8 IC50
T1 construct: expressed in transfected cells
Experimental: (§1) Biological assays were performed on Chinese hamster ovary (CHO) cells that express human sodium channels Nav 1.8 or Nav 1.7 in a stable manner.
(§2) The experimental protocol voltage-clamp using the whole cell configuration was established on the automated ScreenPatch® 384P platform (SP384PE, Nanion Technologies, Livingston, NJ) and the results were recorded with a Nanion 384-well Patch Clamp chip (NPC) (Nanion Technologies, Livingston, NJ).
(§3) Formula I compounds were diluted in eight concentrations in the extracellular solution composed of saline saline solution, buffered with HEPES (mM): NaCl, 137; KCl, 4; CaCl2, 3,8; MgCl2, 1; HEPES, 10; Glucose, 10; pH 7.4. The […], 50; CsF, 90; MgCl2, 5; EGTA, 5; HEPES, 10; pH 7.2. The duration of exposure of each compound with cells expressing Nav 1.7 or Nav 1.8 was at least five minutes and the assays were performed at room temperature.
(§4) The measurements of the sodium currents of Nav 1.8 and Nav 1.7 were obtained using the voltage protocol described below.
(§5) A holding voltage of -100 mV was established followed by an inactivation voltage step at -40 mV for 8 seconds, followed by a step of -100 mV for 20 ms, followed by a 20 ms step for 10 mV for Nav 1.8 or 0 mV for Nav 1.7 (TP1A) before returning to the holding voltage of -100 mV.
(§6) The protocol was repeated at a frequency of 0.05 Hz and the amplitude of the current was quantified throughout the recording of the TP1A phase. The variation in the amplitude of the peak current was evaluated according to the formula described below, after exposing the cells expressing the channels to each concentration of the different compounds: % Block = (1−(ITP1A,molecule/ITP1A,basal)×100%, [formula] wherein ITP1A,basal and ITP1A,molecule represent the peaks of sodium current input into TP1A before exposure to the compound and in the presence of the compound, respectively.
(§7) Data were obtained by nonlinear regression (nonlinear least squares) with XLfit for Excel (Microsoft, Redmond, WA).
(§8) The compounds were tested in at least one assay to obtain the value of CI50. For compounds that were tested in two or more assays, the results are described as the mean of the CI50 values.

[2] = target: T2, human sodium channels Nav 1.7 (Homo sapiens, UniProt Q15858); assay: Automated whole-cell voltage-clamp (ScreenPatch 384P) sodium current block, Nav 1.7; assay type: cell-based; conditions: CHO cells stably expressing human Nav 1.7; inactivation step -40 mV for 8 seconds, test step 0 mV (TP1A); exposure at least five minutes; room temperature; mean if two or more assays; read-out: Nav1.7 IC50
T2 construct: expressed in transfected cells
Experimental: as §1, §2, §3, §4, §5, §6, §7, §8

T2 sequence (Q15858 whole entry): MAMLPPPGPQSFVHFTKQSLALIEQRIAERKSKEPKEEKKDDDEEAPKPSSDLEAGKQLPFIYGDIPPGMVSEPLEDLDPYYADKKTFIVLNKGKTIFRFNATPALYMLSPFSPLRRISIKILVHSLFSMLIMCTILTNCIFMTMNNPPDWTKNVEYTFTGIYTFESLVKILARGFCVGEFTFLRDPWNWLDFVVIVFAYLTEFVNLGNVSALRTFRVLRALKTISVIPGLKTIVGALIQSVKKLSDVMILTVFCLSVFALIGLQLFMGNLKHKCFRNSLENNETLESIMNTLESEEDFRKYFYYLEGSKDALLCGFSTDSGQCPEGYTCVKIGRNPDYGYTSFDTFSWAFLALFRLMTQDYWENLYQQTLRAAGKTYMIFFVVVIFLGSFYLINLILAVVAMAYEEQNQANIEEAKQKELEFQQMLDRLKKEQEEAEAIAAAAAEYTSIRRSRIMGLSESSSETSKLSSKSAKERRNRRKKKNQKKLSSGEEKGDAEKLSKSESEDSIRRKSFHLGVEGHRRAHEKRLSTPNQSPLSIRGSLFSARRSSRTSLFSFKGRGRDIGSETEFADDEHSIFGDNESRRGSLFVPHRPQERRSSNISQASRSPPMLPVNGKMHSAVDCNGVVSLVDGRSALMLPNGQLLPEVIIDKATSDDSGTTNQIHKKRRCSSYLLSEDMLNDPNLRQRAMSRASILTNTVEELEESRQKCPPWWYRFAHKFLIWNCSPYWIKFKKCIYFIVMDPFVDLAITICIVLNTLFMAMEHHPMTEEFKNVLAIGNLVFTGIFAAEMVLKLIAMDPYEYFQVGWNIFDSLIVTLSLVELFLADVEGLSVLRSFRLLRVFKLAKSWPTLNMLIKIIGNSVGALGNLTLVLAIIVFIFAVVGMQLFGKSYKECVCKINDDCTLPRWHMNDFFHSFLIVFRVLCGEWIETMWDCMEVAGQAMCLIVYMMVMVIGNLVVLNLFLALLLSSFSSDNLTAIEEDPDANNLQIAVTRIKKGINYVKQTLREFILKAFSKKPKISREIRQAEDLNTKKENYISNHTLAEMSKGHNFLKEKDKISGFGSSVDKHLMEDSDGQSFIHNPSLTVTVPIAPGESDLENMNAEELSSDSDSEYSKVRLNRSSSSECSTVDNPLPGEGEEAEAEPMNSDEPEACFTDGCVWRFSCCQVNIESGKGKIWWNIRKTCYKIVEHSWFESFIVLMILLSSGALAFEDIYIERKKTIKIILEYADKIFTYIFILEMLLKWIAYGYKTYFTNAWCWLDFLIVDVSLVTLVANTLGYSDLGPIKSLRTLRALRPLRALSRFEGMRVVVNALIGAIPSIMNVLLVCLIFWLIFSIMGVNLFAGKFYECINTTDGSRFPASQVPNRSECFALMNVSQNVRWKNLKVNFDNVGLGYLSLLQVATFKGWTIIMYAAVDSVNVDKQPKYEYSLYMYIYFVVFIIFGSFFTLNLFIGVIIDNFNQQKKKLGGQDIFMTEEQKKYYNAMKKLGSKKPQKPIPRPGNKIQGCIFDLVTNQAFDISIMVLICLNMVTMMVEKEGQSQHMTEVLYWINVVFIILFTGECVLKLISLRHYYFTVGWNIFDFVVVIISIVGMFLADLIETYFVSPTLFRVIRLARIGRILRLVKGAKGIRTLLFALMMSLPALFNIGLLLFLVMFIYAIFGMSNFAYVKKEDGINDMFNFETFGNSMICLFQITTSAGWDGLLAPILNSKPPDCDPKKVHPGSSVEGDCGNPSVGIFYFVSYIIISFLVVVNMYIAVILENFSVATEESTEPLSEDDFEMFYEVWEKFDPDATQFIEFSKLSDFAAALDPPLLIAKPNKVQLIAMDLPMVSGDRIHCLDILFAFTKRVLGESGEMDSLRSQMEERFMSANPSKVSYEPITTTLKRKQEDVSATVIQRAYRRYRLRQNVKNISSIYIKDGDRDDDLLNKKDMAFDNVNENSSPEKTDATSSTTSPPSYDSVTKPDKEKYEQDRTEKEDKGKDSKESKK
T1 sequence (Q9Y5Y9 whole entry): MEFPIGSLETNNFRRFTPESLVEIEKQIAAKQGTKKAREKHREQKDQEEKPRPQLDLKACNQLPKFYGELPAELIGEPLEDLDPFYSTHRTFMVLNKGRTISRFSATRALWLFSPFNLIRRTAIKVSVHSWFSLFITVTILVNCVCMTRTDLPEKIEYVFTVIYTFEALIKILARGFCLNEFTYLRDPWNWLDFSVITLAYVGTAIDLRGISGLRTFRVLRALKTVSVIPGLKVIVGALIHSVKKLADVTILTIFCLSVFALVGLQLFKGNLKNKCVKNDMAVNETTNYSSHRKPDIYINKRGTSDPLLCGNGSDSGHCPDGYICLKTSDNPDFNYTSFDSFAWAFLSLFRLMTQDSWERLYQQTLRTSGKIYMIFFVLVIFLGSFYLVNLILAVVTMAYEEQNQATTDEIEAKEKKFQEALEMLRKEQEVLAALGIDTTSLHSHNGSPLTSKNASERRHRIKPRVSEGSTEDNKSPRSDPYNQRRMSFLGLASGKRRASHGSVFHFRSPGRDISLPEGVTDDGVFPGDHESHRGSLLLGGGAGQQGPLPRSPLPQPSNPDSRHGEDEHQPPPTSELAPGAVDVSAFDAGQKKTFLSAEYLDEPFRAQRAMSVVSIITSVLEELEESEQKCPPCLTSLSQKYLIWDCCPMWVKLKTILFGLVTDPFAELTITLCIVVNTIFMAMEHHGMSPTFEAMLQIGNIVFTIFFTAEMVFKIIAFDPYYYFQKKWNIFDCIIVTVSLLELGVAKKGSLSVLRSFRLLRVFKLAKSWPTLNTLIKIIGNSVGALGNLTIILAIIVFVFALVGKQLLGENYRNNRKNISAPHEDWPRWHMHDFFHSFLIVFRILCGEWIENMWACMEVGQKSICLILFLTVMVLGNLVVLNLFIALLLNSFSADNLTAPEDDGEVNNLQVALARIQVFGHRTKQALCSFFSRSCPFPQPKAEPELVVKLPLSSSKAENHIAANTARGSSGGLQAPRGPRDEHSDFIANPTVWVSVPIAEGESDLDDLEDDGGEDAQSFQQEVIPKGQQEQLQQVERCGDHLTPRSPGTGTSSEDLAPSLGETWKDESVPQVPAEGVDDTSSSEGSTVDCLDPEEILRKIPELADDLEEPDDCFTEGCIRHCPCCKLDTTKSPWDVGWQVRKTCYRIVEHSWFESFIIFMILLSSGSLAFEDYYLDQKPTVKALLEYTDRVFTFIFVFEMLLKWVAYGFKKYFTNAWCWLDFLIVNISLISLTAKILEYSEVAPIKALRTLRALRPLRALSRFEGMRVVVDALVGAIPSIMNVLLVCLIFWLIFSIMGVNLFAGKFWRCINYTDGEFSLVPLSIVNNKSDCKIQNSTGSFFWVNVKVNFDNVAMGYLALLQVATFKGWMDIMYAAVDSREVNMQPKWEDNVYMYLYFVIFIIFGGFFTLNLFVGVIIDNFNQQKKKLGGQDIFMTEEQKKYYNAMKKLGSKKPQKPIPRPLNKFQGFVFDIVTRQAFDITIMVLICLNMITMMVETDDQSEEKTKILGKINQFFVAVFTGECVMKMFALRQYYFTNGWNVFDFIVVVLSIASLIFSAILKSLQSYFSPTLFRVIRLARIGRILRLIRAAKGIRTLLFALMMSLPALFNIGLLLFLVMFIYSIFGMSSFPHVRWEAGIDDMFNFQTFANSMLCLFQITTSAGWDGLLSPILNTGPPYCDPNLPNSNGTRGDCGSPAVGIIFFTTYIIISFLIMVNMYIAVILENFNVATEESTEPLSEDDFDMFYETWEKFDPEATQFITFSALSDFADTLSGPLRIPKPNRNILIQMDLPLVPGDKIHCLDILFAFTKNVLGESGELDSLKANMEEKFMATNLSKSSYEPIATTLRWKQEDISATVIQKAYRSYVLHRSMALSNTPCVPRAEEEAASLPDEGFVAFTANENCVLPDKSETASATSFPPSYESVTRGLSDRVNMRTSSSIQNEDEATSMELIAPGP

SMILES | IC50 [1] [µM] | IC50 [2] [µM]
COc1ccc(F)c(CONC(=O)c2cnc(N)c(-c3ccc(OC(F)F)nc3)n2)c1 [Compound 122] | > 1 | > 1
CCOc1ccc(-c2cncc(C(=O)NOCc3cncc(OC)c3)n2)cn1 [Compound 36, 6-(6-ethoxypyridine-3-yl)-N-((5-methoxypyridine-3-yl)methoxy)pyrazine-2-carboxamide] | < 0.5 | > 1
CCOc1ccc(-c2nccc(C(=O)NOCc3cc(OC)ccc3F)n2)cn1 [Compound 109] | < 0.5 | > 1
CCOc1ccc(-c2cccc(C(=O)NOCc3cc(OC)ccc3F)n2)cn1 [Compound 106] | > 1 | > 1
CCOc1ccc(-c2cncc(C(=O)NOCc3cc(OC)ccc3F)c2)cn1 [Compound 108] | > 1 | > 1
COc1ccc(F)c(CONC(=O)c2nccc(-c3ccc(OC(F)F)nc3)n2)c1 [Compound 119] | < 0.5 | > 1
COc1cccc(CONC(=O)c2cncc(-c3ccc(OC(F)(F)F)nc3)n2)c1 [Compound 72] | < 0.5 | < 0.5
CCOc1ccc(-c2cncc(C(=O)NOCc3cc(OC)cnc3C)n2)cn1 [Compound 46, 6-(6-ethoxypyridine-3-yl)-N-((5-methoxy-2-methylpyridine-3-yl)methoxy)pyrazine-2-carboxamide] | > 1 | > 1
CCOc1ccc(-c2cncc(C(=O)NOCc3cc(OC)cnc3F)n2)cn1 [Compound 38, 6-(6-ethoxypyridine-3-yl)-N-((2-fluoro-5-methoxypyridine-3-yl)methoxy)pyrazine-2-carboxamide] | < 0.5 | > 1
CCOc1ccc(-c2cncc(C(=O)NOCc3cc(OC)ccc3C)n2)cc1 [Compound 19, 6-(4-ethoxyphenyl)-N-((5-methoxy-2-methylbenzyl)oxy)pyrazine-2-carboxamide] | > 1 | > 1
COc1ccc(F)c(CONC(=O)c2cccc(-c3ccc(OC(F)F)nc3)n2)c1 [Compound 115] | > 1 | > 1
CCOc1ccc(-c2cncc(C(=O)NOCc3cc(N(C)C)ccc3F)n2)cn1 [Compound 40, N-((5-(dimethylamino)-2-fluorobenzyl)oxy)-6-(6-ethoxypyridine-3-yl)pyrazine-2-carboxamide] | < 0.5 | > 1
CCOc1ccc(-c2cncc(C(=O)NOCc3cc(OC)cnc3C)n2)cc1 [Compound 18, 6-(4-ethoxyphenyl)-N-((5-methoxy-2-methylpyridine-3-yl)methoxy)pyrazine-2-carboxamide] | < 0.5 | 0.5 to 1
COc1ccc(F)c(CONC(=O)c2cncc(-c3ccc(O)cc3)n2)c1 [Compound 1, N-((2-fluoro-5-methoxybenzyl)oxy)-6-(4-hydroxyphenyl)pyrazine-2-carboxamide] | > 1 | > 1
O=C(NOCc1ccncc1)c1cncc(-c2ccc(OC(F)(F)F)nc2)n1 [Compound 75] | < 0.5 | < 0.5
CCOc1ccc(-c2cnc(O)c(C(=O)NOCc3cc(OC)ccc3F)n2)cn1 [Compound 101] | > 1 | > 1
[2H]C([2H])([2H])Oc1ccc(F)c(C([2H])([2H])ONC(=O)c2cncc(-c3ccc(OC([2H])([2H])C([2H])([2H])[2H])nc3)n2)c1 [Compound 54, 6-(6-(ethoxy-d5)pyridine-3-yl)-N-((2-fluoro-5-(methoxy-d3)phenyl)methoxy-d2)pyrazine-2-carboxamide] | > 1 | > 1
COc1ccc(F)c(CONC(=O)c2cncc(-c3ccc(OC(F)(F)F)nc3)n2)c1 [Compound 76] | < 0.5 | 0.5 to 1
CCOc1ccc(-c2cncc(C(=O)NOCc3ccccc3F)n2)cc1 [Compound 4, 6-(4-ethoxyphenyl)-N-((2-fluorobenzyl)oxy)pyrazine-2-carboxamide] | < 0.5 | 0.5 to 1
CCOc1ccc(-c2cncc(C(=O)NOCc3cncn3C)n2)cn1 [Compound 56] | < 0.5 | 0.5 to 1

SMILES | IC50 [1] [µM] | IC50 [2] [µM]
CCOc1ccc(-c2nc(C(=O)NOCc3cc(OC)ccc3F)cnc2F)cn1 [Compound 104] | < 0.5 | > 1
CCOc1ccc(-c2cncc(C(=O)NOCc3cc(N(C)C)cnc3F)n2)cn1 [Compound 42, N-((5-(dimethylamino)-2-fluoropyridine-3-yl)methoxy)-6-(6-ethoxypyridine-3-yl)pyrazine-2-carboxamide] | < 0.5 | > 1
CCOc1ccc(-c2cncc(C(=O)NOCc3nccn3CC)n2)cn1 [Compound 61, 6-(6-ethoxypyridine-3-yl)-N-((1-ethyl-1H-imidazole-2-yl)methoxy)pyrazine-2-carboxamide] | < 0.5 | > 1
COc1ccc(F)c(CONC(=O)c2cncc(-c3ccc([S+](C)[O-])nc3)n2)c1 (centres unmarked) [Compound 84] | < 0.5 | > 1
CCOc1ccc(-c2cncc(C(=O)NOCc3cn(C(C)C)cn3)n2)cn1 [Compound 70] | < 0.5 | 0.5 to 1
COc1ccc(F)c(CONC(=O)c2nc(-c3ccc(OC(F)F)nc3)cnc2F)c1 [Compound 123] | > 1 | > 1
COc1ccc(F)c(CONC(=O)c2cncc(-c3ccc(OC(F)F)cc3OC)n2)c1 [Compound 88] | > 1 | > 1
CCOc1ccc(-c2cc(O)nc(C(=O)NOCc3cc(OC)ccc3F)n2)cc1 [Compound 113] | < 0.5 | > 1
CCOc1ccc(-c2cncc(C(=O)NOCc3ccnn3C(C)C)n2)cn1 [Compound 64] | > 1 | > 1
CN(C)c1ccc(F)c(CONC(=O)c2cncc(-c3ccc(OC(F)F)nc3)n2)c1 [Compound 81] | > 1 | > 1
CCOc1ccc(-c2cncc(C(=O)NOCc3cc(OC)ccc3C)n2)cn1 [Compound 47, 6-(6-ethoxypyridine-3-yl)-N-((5-methoxy-2-methylbenzyl)oxy)pyrazine-2-carboxamide] | > 1 | > 1
O=C(NOCc1ccccn1)c1cncc(-c2ccc(OC(F)(F)F)nc2)n1 [Compound 73] | < 0.5 | > 1
COc1ccc(F)c(CONC(=O)c2cncc(-c3ccc(OCCC4CN(C)C4)cc3)n2)c1 [Compound 27, N-((2-fluoro-5-methoxybenzyl)oxy)-6-(4-(2-(1-methylazetidine-3-yl)ethoxy)phenyl)pyrazine-2-carboxamide] | < 0.5 | > 1
[2H]C([2H])([2H])Oc1ccc(F)c(CONC(=O)c2cncc(-c3ccc(OC([2H])([2H])C([2H])([2H])[2H])nc3)n2)c1 [Compound 53, 6-(6-(ethoxy-d5)pyridine-3-yl)-N-((2-fluoro-5-(methoxy-d3)benzyl)oxy)pyrazine-2-carboxamide] | > 1 | > 1
CCOc1ccc(-c2cncc(C(=O)NOCc3cc(OC(C)C)ccc3F)n2)cc1 [Compound 10, 6-(4-ethoxyphenyl)-N-((2-fluoro-5-isopropoxybenzyl)oxy)pyrazine-2-carboxamide] | < 0.5 | > 1
CCOc1ccc(-c2cncc(C(=O)NOCc3cc(OC)ccc3C3CC3)n2)cc1 [Compound 15, N-((2-cyclopropyl-5-methoxybenzyl)oxy)-6-(4-ethoxyphenyl)pyrazine-2-carboxamide] | < 0.5 | < 0.5
CCOc1ccc(-c2cncc(C(=O)NOCc3cc(N(C)C)cnc3F)n2)cn1 [Compound 41, N-((5-(dimethylamino)-2-fluoropyridine-3-yl)methoxy)-6-(6-ethoxypyridine-3-yl)pyrazine-2-carboxamide] | < 0.5 | > 1
COc1ccc(F)c(CONC(=O)c2cncc(-c3ccc(OC(F)F)nc3)n2)c1 [Compound 77] | > 1 | > 1
CCOc1ccc(-c2cncc(C(=O)NOCc3ocnc3C)n2)cn1 [Compound 65, 6-(6-ethoxypyridine-3-yl)-N-((4-methyloxazole-5-yl)methoxy)pyrazine-2-carboxamide] | > 1 | > 1
CCOc1ccc(-c2cncc(C(=O)NOCc3ccccc3O)n2)cc1 [Compound 6, 6-(4-ethoxyphenyl)-N-((2-hydroxybenzyl)oxy)pyrazine-2-carboxamide] | > 1 | > 1
